Laboratory results published in patent US20150290106A1, “Dentotropic Conjugates and Compositions and Methods of Use Thereof” (BOARD OF REGENTS OF THE UNIVERSITY OF NEBRASKA, priority 2012, published 2015).

Key:
[1] = Model tooth surface binding experiment (menthol-PPi/hydroxyapatite binding by 1H NMR); settings: for speed of binding to HA (time to maximum binding): HA powder, vortex agitation, diphosphate
Method: Menthol-PPi (80 mg) was dissolved in deuterium oxide (D2O, 16.1159 g). Two drops (34.7 mg) of acetone was added as an internal reference when using NMR spectroscopy. Four time intervals were chosen for this study, each with three samples for each interval. Into each of twelve microcentrifuge tubes was added 10 mg hydroxyapatite (HA). One by one, […] was added to the tubes and then agitated with a vortex mixer at high speed for the allotted amount of time. Each tube was then centrifuged at 12.000 rpm for one minute. The liquid was then transferred to NMR tubes for analysis. Three blank NMR samples without the influence of HA were prepared for reference, as well as three control samples without pyrophosphate (i.e., menthol only) with HA. The spectra of the blank samples were compared to those of the experimental samples by observing the relative integration areas of the acetone peak vs. the signal from one methyl group of menthol's isopropyl component. No binding is observed without pyrophosphate.
An additional experiment was performed, changing the hydroxyapatite amount while keeping the vortex time fixed at 2 minutes for each sample, simulating the average time a person spends brushing his or her teeth. Menthol-PPi (80 mg) was dissolved in 16.14 g D2O. Two drops (25.7 mg) of acetone were again added as internal reference. One gram of the menthol-PPi solution was added to the HA test tubes just prior to vortex agitation, as before. Samples were again analyzed via ^1H NMR.

[2] = Menthol release in filtered saliva diluted 1:1 with PBS over 24 hours (GC/MS, FIG. 2); format: in vitro ADME, human; settings: saliva/PBS 1:1, 37° C.
Method: FIG. 2 provides a graph of the menthol release after chloroform extraction over the course of 24 hours.
Into several 15-mL glass vials were placed 10 mg of menthol-PPi and 2 mL of fresh saliva. The saliva had been centrifuged to remove any free particles, then filtered through a 0.45 μm syringe filter to rid bacteria. It was then diluted 1:1 by volume with phosphate-buffered saline (PBS). Each sample was placed in a water bath incubator at 37° C., shaking at 40 rpm, for a specific amount of time over the course of 24 hours. One sample was withdrawn at each time interval, and vortexed for 10 seconds after direct addition of 2 mL of chloroform. The mixture was transferred to microcentrifuge tubes, after which each tube was centrifuged at 12,000 rpm for one minute to separate the chloroform phase from the water (saliva/PBS) phase. […] After GC/MS analysis of each sample, the total amount of menthol released was calculated using the integration areas of menthol and neomenthol, simplified into a ratio. […] The absolute amount, in μg, of menthol in each GC/MS vial was determined by multiplying the concentration by 1 mL, the total amount of solution in the vial. Then, the release amount was calculated by taking the previous value and multiplying it by a factor of 4, since the original sample was 2 mL. […]

binding to HA ([1]; control samples without pyrophosphate (menthol only) with HA)	release profile of menthol from the pyrophosphate [2]	HA-Bound Conjugate (% ± σ %) ([1]; 10 mg hydroxyapatite, vortex time 1 min)	HA-Bound Conjugate (% ± σ %) ([1]; 10 mg hydroxyapatite, vortex time 2 min)	HA-Bound Conjugate (% ± σ %) ([1]; 10 mg hydroxyapatite, vortex time 5 min)	HA-Bound Conjugate (% ± σ %) ([1]; 10 mg hydroxyapatite, vortex time 10 min)	HA-Bound Conjugate (% ± σ %) ([1]; 20 mg hydroxyapatite, time fixed at two minutes)	HA-Bound Conjugate (% ± σ %) ([1]; 30 mg hydroxyapatite, time fixed at two minutes)	HA-Bound Conjugate (% ± σ %) ([1]; 40 mg hydroxyapatite, time fixed at two minutes)	speed of binding to HA (time to maximum binding) [1]	speed of binding to HA (time to maximum binding) ([1]; listed as menthol-PPi)	SMILES
No binding	–	–	–	–	–	–	–	–	–	–	CC1CCC(C(C)C)C(O)C1 (centres unmarked) [menthol, reference compound]
–	linear in nature	27.56 ± 4.44%	25.69 ± 0.77%	28.30 ± 2.70%	28.25 ± 3.04%	33.88 ± 6.32%	45.04 ± 1.34%	54.51 ± 3.65%	within one minute	very quickly	CC(C)[C@@H]1CC[C@@H](C)C[C@H]1OC(=O)COP(=O)([O-])OP(=O)([O-])[O-].[Na+].[Na+].[Na+] [Menthol-PPi, sodium 2-((1R,2S,5R)-2-isopropyl-5-methylcyclohexyloxy)-2-oxoethyl diphosphate]
